Values after ≈ are worked out from the molar mass of the structure shown. Like-named read-outs stand apart in the source and are kept apart here.
How the values were obtained:
B. henselae [1] = test: MIC assay in liquid culture media (OD600); type: cell-based, Bartonella henselae
Description: (§1) The B. henselae strains used were San Antonio 2, 267HO04, a human clinical isolate and B. vinsonii subsp. berkhoffii. Both the bacteria were initially grown on tryptic soy agar (TSA) supplemented with 5% defibrinated sheep blood plates that were either pre-made (Remel, R01198) or homemade, in a humidified atmosphere at 37° C. with 5% CO2 for 7 days. For the preparation of liquid cultures, an individual well-grown colony from the plate was resuspended in 15 ml Falcon tubes containing 3 mL of either Schneider's insect media supplemented with 10% FBS, or Grace's insect media (Gibco, 11605-094) supplemented with 10% FBS, or BAPGM serum-free liquid media. The cultures grew for 7 more days in the atmosphere as above without shaking. The number of viable bacteria was determined by either plating serial dilutions of the culture on plates for CFU or by live/dead staining. Before every experiment, bacteria were mixed well and passed through 22-gauge needle to break large clumps of bacteria.
(§2) Optical density (OD) of 7-day old bacterial liquid culture that was grown from an individual colony was measured using a spectrophotometer (Bio-Rad, SmartSpec 300, 170-2501). Bacterial culture was then diluted down to an OD of 0.1 ? 3×10^8 cfu/ml with the respective media.
(§3) To determine the MIC of the antibiotics and for the visualization of the bacterial growth, a clear 96-well plate was used. Into each well of a 96-well plate, 50 μl of the 0.1 OD bacterial culture and 50 μl of the liquid media containing antibiotics were added to the wells bringing the total volume to 100 μl of 0.05 OD bacteria (CFU ? 1.5×10^7) in each well. Wells containing only bacteria with solvent used in the dilution of the antibiotics served as a positive control to verify the growth of bacteria. As a negative control, wells containing only media and solvents were used. Each concentration of diluted antibiotic was run in 4 replicates to minimize the error rate. The 96-well plate was covered with the lid and incubated at 37° C. with 5% CO2. OD of the culture was read after 48 hrs and 96 hrs using a hybrid multi-mode microplate reader (Biotek, Synergy H4 hybrid reader) at OD600. The assay was repeated three times.
(§4) Therapeutic agent stocks were prepared in the following solvents: 10 mg/ml of ceftriaxone (USP), doxycycline (Fisher scientific, D9891-1G), gentamicin (Fisher scientific, 1405-41-0), ampicillin (Fisher scientific, 69-52-3) and azlocillin (Flightpath) in sterile cell culture grade water, whereas 5 mg/ml of azithromycin (Sigma, PZ0007-5MG) was dissolved in sterile cell culture grade DMSO. Antibiotics were then aliquoted and stored at either −80° C. or −20° C. until further use. On the day of assay, these stock concentrations were diluted to 1 mg/ml and 100 μg/ml in the respected bacterial culture media for MIC and cell-free, liquid culture MBC assays. For the DH82 cell-based MBC assay, antibiotics were diluted in EMEM media supplemented with 15% heat inactivated FBS.
(§5) The determination of susceptibility to therapeutic agents was performed in liquid culture media. Six different therapeutic agents were tested with multiple different concentrations against B. henselae and B. vinsonii. Therapeutic agent concentrations tested were as follows: Ceftriaxone 0.001, 0.01, 0.1, 0.3, 0.5, 1, 2, and 5 μg/ml; doxycycline 0.001, 0.01, 0.1, 0.3, 0.5, 1, 2, 5, and 10 μg/ml, gentamicin: 0.01, 0.1, 0.3, 0.5, 1, 2, 4, 8, and 16 μg/ml, and azithromycin: 0.001, 0.005, 0.02, 0.1, 0.3, 0.5, 1, 2, 5, and 10 μg/ml, were tested based on previous antibiotic susceptibility studies. The following azlocillin dilutions were included: 0.001, 0.005, 0.01, 0.02, 0.5, 1, 2, and 5 μg/ml. The ampicillin dilutions included were as follows: 0.001, 0.005, 0.01, 0.02, 0.5, 1, 2, 4, and 8 μg/ml. Both the species of Bartonella were susceptible to all the antibiotics that were used in BAPGM and Grace's culture liquid mediums. […]

B. vinsonii [2] = test: MIC assay in liquid culture media (OD600); type: cell-based, B. vinsonii subsp. berkhoffii; settings: Grace's insect media
Description: as §1, §2, §3, §4, §5

B. henselae [3] = test: Cell-free, liquid culture MBC assay; type: cell-based, Bartonella henselae; settings: 96 hrs, plated on blood agar
Description: as §1
(§6) Briefly, the bacterial culture that was treated with therapeutic agents for 96 hrs was collected into a 1.5 ml microcentrifuge tubes and centrifuged at 7000 rpm for 10 min. The supernatant was removed, and the bacterial pellet was washed with 1×PBS twice. The bacterial pellet was then resuspended in 100 μL of 1×PBS, plated onto blood agar plates and incubated at 37° C. with 5% CO2 for about 14 days. This assay was repeated three times with all the 6 different antibiotics (azlocillin, azithromycin, ceftriaxone, doxycycline, gentamicin and ampicillin) and at different concentrations.
as §4
For this assay, both B. henselae and B. vinsonii were grown in Grace's insect media and were tested against all of the 6 antibiotics (ceftriaxone, doxycycline, gentamicin, azithromycin, azlocillin, ampicillin).

B. vinsonii [4] = test: Cell-free, liquid culture MBC assay; type: cell-based, B. vinsonii subsp. berkhoffii; settings: 96 hrs, plated on blood agar
Description: as §1, §6, §4
For this assay, both B. henselae and B. vinsonii were grown in Grace's insect media and were tested against all of the 6 antibiotics (ceftriaxone, doxycycline, gentamicin, azithromycin, azlocillin, ampicillin). […] However, ceftriaxone, gentamicin, azithromycin, and azlocillin were all bactericidal and completely eliminated the growth at concentrations below 10 µg/ml. Table 2 provides comparison of MBCs for B. henselae and B. vinsonii strains in cell-free liquid culture medium determined by incubating the bacteria with antibiotics in a 96-well plate and plating on tryptic soy agar supplemented with 5% sheep blood. Additionally, MBC for B. henselae determined by DH82 cell-based assay (right column) is provided.

[5] = Bartonella henselae, BAPGM, read-out: MIC
[6] = Bartonella henselae, Grace's insect media, read-out: MIC
[7] = Bartonella henselae, Schneider's insect medium, read-out: MIC
[8] = Bartonella henselae, read-out: MBC

Q: gentamicin was tested. Which MIC (B. henselae [1]; BAPGM) did it give?
A: 0.1 to 0.5 µg/mL

Q: What about the MIC (B. henselae [1]; Grace's insect media) of the same compound?
A: 2.0 to 4.0 µg/mL

Q: What about the MIC (B. henselae [1]; Schneider's insect medium) of the same compound?
A: >1 µg/mL

Q: And the MIC (B. vinsonii [2])?
A: 2.0 to 4.0 µg/mL

Q: What about the MBC (B. henselae [3]) of the same compound?
A: 2.0 to 4.0 µg/mL

Q: What about the MBC (B. vinsonii [4]) of the same compound?
A: 4.0 to 8.0 µg/mL

Q: `CC[C@H]1OC(=O)[C@H](C)[C@@H](O[C@H]2C[C@@](C)(OC)[C@@H](O)[C@H](C)O2)[C@H](C)[C@@H](O[C@@H]2O[C@H](C)C[C@H](N(C)C)[C@H]2O)[C@](C)(O)C[C@@H](C)CN(C)[C@H](C)[C@@H](O)[C@]1(C)O` [Azithromycin, azithromycin] was tested. Which MIC (B. henselae [1]; [5]) did it give?
A: 0.005 to 0.02 µg/mL

Q: And the MIC (B. henselae [1]; [6])?
A: 0.3 to 0.5 µg/mL

Q: And the MIC (B. henselae [1]; [7])?
A: > 0.02 µg/mL

Q: What about the MIC (B. vinsonii [2]; read-out: MIC) of the same compound?
A: 0.1 to 0.3 µg/mL

Q: And the MBC (B. henselae [3]; [8])?
A: 5 to 10 µg/mL (≈ 6.68 to 13.4 µM)

Q: What about the MBC (B. vinsonii [4]; read-out: MBC) of the same compound?
A: 2 to 5 µg/mL (≈ 2.67 to 6.68 µM)

Q: `CO/N=C(\C(=O)N[C@@H]1C(=O)N2C(C(=O)O)=C(CSc3nc(=O)c(=O)[nH]n3C)CS[C@H]12)c1csc(N)n1` [Ceftriaxone, ceftriaxone] was tested. Which MIC (B. henselae [1]; [5]) did it give?
A: 0.01 to 0.1 µg/mL

Q: And the MIC (B. henselae [1]; [6])?
A: 0.01 to 0.1 µg/mL

Q: What about the MIC (B. henselae [1]; [7]) of the same compound?
A: > 0.3 µg/mL

Q: What about the MIC (B. vinsonii [2]; read-out: MIC) of the same compound?
A: 0 to 0.01 µg/mL

Q: And the MBC (B. henselae [3]; [8])?
A: 2 to 4 µg/mL (≈ 3.61 to 7.21 µM)

Q: And the MBC (B. vinsonii [4]; read-out: MBC)?
A: 0.5 to 1 µg/mL (≈ 0.902 to 1.8 µM)

Q: Which results are given for `CC1(C)S[C@@H]2[C@H](NC(=O)[C@H](NC(=O)N3CCNC3=O)c3ccccc3)C(=O)N2[C@H]1C(=O)O` [Azlocillin, azlocillin]?
A: MIC (B. henselae [1]; [5]): 0.01 to 0.02 µg/mL; MIC (B. henselae [1]; [6]): 0.005 to 0.01 µg/mL; MIC (B. henselae [1]; [7]): > 2 µg/mL; MIC (B. vinsonii [2]; read-out: MIC): 0.001 to 0.005 µg/mL; MBC (B. henselae [3]; [8]): 1 to 2 µg/mL (≈ 2.17 to 4.33 µM); MBC (B. vinsonii [4]; read-out: MBC): 0.25 to 0.5 µg/mL (≈ 0.542 to 1.08 µM)
